Assay results from patent publication US11572590B2, “Methods for evaluating tumor cell spheroids using 3D microfluidic cell culture device” (Dana-Farber Cancer Institute, Inc., priority 2017, dated 2023).
Read-outs that look alike come from different tables or passages of the source.

What was measured:
Assay in all cases: SelectScreen Kinase Profiling, single point inhibition and IC50 for off-target kinases
Assay type in all cases: biochemical
off-target kinases [1] = target: off-target kinases (Homo sapiens, UniProt Q9HAZ1); settings: CLK4, LanthaScreen Binding
off-target kinases (Homo sapiens, UniProt Q9HAZ1), sequence (Q9HAZ1 whole entry): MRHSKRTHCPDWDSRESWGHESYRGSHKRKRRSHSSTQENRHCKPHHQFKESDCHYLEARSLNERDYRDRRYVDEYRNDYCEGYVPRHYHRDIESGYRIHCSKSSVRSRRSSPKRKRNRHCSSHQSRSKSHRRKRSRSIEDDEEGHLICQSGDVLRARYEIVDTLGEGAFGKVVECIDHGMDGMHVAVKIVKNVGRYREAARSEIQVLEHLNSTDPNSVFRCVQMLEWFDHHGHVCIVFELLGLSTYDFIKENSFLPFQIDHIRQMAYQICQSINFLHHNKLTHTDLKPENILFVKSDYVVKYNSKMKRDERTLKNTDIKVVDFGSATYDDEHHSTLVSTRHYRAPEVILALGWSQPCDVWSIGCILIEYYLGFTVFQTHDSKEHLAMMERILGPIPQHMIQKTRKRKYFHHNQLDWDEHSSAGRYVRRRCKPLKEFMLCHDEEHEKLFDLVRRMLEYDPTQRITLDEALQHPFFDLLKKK

off-target kinases [2] = target: T1, off-target kinases (Homo sapiens, UniProt O14920); settings: IKBKB (IKK beta), ATP Km app, ZLYTE
T1 sequence (O14920 1-756): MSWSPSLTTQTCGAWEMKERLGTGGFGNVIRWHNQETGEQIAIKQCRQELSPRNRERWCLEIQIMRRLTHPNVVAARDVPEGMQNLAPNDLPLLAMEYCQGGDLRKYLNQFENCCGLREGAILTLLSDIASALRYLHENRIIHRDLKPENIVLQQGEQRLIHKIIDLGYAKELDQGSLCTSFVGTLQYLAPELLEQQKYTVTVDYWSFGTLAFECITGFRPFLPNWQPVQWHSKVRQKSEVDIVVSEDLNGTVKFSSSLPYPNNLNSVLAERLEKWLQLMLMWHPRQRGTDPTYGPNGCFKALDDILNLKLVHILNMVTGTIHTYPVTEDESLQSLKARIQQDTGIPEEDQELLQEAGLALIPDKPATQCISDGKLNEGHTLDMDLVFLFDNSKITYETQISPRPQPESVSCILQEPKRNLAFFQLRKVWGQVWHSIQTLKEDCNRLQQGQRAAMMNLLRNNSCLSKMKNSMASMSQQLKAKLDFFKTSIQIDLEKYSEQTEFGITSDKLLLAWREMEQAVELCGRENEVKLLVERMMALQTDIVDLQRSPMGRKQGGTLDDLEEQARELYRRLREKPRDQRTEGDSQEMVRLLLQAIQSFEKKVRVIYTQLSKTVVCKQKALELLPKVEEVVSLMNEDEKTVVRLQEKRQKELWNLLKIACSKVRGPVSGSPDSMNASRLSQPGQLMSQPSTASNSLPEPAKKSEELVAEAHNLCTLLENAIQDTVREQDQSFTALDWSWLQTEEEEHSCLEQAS

off-target kinases [3] = target: off-target kinases (Homo sapiens, UniProt P53355); settings: DAPK1, ATP Km app, Adapta
off-target kinases (Homo sapiens, UniProt P53355), sequence (P53355 whole entry): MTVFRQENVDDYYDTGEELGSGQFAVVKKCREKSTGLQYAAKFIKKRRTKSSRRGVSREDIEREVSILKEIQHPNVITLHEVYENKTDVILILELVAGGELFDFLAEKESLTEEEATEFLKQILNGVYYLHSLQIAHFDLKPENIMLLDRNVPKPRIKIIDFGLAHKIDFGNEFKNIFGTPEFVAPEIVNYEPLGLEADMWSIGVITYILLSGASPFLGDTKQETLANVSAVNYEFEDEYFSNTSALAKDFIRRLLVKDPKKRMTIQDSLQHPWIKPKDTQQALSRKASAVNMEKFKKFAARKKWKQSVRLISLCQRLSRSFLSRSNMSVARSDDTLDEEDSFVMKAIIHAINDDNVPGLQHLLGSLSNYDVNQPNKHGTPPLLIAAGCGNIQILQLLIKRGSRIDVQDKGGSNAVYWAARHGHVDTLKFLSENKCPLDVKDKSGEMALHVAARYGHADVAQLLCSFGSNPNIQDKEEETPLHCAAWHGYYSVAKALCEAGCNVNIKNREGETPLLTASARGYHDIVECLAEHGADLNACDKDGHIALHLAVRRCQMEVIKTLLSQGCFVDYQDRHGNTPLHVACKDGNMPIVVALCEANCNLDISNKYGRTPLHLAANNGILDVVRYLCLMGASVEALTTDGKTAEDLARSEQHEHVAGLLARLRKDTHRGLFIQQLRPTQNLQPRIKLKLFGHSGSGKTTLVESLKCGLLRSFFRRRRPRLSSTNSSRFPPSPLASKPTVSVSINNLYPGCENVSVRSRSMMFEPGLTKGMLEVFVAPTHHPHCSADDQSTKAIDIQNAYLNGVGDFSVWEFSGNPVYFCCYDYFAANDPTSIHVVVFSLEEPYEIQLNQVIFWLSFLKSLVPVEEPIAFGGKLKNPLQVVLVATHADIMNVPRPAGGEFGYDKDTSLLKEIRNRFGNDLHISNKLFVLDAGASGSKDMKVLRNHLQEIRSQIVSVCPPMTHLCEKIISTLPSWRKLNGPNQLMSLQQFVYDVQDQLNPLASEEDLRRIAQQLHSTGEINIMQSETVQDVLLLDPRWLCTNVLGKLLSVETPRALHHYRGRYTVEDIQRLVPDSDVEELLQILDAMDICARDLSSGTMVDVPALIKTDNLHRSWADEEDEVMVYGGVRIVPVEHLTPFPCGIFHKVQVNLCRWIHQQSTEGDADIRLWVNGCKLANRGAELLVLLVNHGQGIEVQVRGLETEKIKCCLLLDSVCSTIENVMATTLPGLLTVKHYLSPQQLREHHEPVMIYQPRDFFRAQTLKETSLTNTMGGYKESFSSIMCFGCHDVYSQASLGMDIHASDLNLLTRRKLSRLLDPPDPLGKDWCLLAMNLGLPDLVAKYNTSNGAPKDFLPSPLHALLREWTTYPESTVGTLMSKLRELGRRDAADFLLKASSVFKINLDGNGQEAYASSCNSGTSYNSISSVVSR

off-target kinases [4] = target: off-target kinases (Homo sapiens, UniProt Q5S007, I2020T); settings: LRRK2 I2020T, ATP Km app, Adapta
off-target kinases (Homo sapiens, UniProt Q5S007, I2020T), sequence (Q5S007 whole entry I2020T): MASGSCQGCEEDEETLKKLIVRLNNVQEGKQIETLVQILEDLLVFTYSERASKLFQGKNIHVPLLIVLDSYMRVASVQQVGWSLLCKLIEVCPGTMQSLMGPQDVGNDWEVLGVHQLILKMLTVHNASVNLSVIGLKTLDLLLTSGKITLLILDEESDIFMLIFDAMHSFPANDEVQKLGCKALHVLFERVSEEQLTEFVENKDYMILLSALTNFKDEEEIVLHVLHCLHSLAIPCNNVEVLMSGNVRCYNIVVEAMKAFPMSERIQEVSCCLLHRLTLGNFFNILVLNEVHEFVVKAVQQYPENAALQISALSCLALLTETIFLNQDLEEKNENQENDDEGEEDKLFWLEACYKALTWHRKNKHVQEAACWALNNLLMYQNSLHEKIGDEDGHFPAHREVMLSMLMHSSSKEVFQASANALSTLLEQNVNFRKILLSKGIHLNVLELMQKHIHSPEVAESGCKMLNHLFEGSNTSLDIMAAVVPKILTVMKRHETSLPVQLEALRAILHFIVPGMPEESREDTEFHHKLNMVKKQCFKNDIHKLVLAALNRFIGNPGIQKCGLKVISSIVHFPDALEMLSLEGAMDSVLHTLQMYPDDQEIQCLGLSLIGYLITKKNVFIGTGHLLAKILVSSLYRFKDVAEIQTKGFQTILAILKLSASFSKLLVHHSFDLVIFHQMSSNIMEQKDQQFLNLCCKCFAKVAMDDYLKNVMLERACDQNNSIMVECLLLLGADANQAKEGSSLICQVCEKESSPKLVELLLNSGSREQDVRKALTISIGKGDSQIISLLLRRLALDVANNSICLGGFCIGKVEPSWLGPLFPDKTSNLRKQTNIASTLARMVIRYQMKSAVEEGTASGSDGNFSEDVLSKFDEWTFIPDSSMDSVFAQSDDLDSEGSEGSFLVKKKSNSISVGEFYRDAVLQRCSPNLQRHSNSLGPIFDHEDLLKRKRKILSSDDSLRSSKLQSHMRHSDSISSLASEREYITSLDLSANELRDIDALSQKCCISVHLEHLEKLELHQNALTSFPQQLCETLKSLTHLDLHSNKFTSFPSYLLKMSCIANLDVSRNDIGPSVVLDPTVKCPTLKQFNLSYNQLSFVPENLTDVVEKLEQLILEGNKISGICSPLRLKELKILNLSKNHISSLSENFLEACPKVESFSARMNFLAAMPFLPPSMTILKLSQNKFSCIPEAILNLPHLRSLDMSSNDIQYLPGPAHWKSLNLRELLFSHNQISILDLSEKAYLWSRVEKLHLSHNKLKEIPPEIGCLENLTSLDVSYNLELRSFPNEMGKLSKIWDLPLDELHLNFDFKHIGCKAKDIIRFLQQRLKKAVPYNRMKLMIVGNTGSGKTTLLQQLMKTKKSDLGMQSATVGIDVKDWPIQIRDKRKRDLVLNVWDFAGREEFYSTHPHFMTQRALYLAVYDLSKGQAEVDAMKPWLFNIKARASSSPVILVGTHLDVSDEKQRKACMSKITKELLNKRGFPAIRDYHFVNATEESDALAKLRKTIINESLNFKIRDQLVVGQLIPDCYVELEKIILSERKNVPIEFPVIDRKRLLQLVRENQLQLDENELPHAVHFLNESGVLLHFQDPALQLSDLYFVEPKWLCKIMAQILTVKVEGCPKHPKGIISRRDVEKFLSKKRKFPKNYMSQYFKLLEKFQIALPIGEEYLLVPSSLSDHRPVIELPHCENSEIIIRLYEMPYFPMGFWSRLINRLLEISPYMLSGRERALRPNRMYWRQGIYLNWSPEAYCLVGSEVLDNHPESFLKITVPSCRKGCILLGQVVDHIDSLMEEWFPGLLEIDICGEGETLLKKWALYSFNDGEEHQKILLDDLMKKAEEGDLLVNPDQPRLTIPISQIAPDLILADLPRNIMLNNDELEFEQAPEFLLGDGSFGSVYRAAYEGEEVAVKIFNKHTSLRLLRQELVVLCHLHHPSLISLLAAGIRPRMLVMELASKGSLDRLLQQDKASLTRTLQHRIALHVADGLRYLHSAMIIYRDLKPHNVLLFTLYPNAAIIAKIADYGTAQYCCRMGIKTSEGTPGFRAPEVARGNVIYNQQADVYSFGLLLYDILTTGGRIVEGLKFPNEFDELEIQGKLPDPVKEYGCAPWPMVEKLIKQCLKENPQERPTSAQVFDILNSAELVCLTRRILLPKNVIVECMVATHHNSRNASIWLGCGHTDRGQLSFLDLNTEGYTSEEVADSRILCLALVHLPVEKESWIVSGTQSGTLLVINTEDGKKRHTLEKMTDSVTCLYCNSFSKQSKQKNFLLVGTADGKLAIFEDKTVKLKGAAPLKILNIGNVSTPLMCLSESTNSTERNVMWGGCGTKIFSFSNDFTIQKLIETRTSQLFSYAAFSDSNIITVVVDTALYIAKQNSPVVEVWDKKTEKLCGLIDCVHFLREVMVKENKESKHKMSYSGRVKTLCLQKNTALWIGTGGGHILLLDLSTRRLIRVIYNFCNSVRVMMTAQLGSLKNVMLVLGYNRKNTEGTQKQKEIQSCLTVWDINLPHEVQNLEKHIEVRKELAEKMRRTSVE

off-target kinases [5] = target: T2, off-target kinases (Homo sapiens, UniProt Q13976); settings: PRKG1, ZLYTE, ATP Km app
T2 sequence (Q13976 1-671): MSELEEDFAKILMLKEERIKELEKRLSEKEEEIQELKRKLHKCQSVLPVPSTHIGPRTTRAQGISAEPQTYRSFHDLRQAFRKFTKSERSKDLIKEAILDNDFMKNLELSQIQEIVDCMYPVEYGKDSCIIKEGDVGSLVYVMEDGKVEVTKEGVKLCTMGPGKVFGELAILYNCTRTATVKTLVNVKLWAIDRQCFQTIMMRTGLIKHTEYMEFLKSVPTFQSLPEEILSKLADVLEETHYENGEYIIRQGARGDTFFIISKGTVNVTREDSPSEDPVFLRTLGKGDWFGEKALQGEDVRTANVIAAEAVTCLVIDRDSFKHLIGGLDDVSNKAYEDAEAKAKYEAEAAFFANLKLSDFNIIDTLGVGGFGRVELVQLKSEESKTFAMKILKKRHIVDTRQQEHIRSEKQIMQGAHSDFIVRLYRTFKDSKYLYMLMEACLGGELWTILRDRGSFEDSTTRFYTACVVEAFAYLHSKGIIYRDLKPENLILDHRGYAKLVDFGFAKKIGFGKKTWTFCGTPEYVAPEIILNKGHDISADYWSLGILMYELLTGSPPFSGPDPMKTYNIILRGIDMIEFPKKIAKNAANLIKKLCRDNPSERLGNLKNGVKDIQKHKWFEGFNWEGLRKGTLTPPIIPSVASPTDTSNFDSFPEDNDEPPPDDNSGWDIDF

**Q.** Which inhibition (off-target kinases [1]; read-out: % Inhibition 1) does the source give for `N#Cc1cc(-c2ncnc(Nc3ccc(N4CCN(C5COC5)CC4)cc3)n2)ccc1OC1CCOCC1` [Compound 1, 5-(4-((4-(4-(oxetan-3-yl)piperazin-1-yl)phenyl)amino)-1,3,5-triazin-2-yl)-2-((tetrahydro-2H-pyran-4-yl)oxy)benzonitrile] here?
**A.** 87%

**Q.** And the inhibition (off-target kinases [1]; read-out: % Inhibition 2)?
**A.** 89%

**Q.** And the inhibition (off-target kinases [1]; read-out: % Inhibition Avg)?
**A.** 88%

**Q.** And the inhibition (off-target kinases [2]; read-out: % Inhibition 1)?
**A.** 52%

**Q.** And the inhibition (off-target kinases [2]; read-out: % Inhibition 2)?
**A.** 39%

**Q.** What about the inhibition (off-target kinases [2]; read-out: % Inhibition Avg) of the same compound?
**A.** 45%

**Q.** And the inhibition (off-target kinases [3]; read-out: % Inhibition 1)?
**A.** 42%

**Q.** And the inhibition (off-target kinases [3]; read-out: % Inhibition 2)?
**A.** 43%

**Q.** What about the inhibition (off-target kinases [3]; read-out: % Inhibition Avg) of the same compound?
**A.** 43%

**Q.** What about the inhibition (off-target kinases [4]; read-out: % Inhibition 1) of the same compound?
**A.** 100%

**Q.** What about the inhibition (off-target kinases [4]; read-out: % Inhibition 2) of the same compound?
**A.** 98%

**Q.** And the inhibition (off-target kinases [4]; read-out: % Inhibition Avg)?
**A.** 99%

**Q.** What about the inhibition (off-target kinases [5]; read-out: % Inhibition 1) of the same compound?
**A.** 2%

**Q.** What about the inhibition (off-target kinases [5]; read-out: % Inhibition 2) of the same compound?
**A.** 5%

**Q.** And the inhibition (off-target kinases [5]; read-out: % Inhibition Avg)?
**A.** 3%
